US20020155443A1, “Metal binding DNA interactive compounds” (priority 2000, published 2002)

Experiments:
Assay in all cases: DTP Human Tumor Cell Line Screen, sulforhodamine B assay
Assay type in all cases: cell-based
A498 = settings: Renal Cancer, 48 h
Description: (§1) The growth inhibitory activity of propargylic sulfone 3.2 against a wide range of human cancer cell lines was determined calorimetrically with sulforhodamine B assay conducted by the National Cancer Institute of the National Institutes of Health.
(§2) The in vitro cytotoxicity of compounds 2.47, 2.48 and 3.2 were investigated using the DTP Human Tumor Cell Line Screen. The concept, rationale and history of development of the DTP Human Tumor Cell Line Screen were described by Boyd (1993;1997)^8.4, 8.6 and Boyd and Paull (1995)^8.5. Further technical details of the NCI screening procedures were described (Monks, et. al.)^8.2 as were the origins and processing of the cell lines (Alley, et. al., Shoemaker, et. al., Stinson, et. al.). Briefly, cell suspensions that were diluted according to the particular cell type and the expected target cell density (5000-40,000 cells per well based on cell growth characteristics) were added by pipet (100 μL) into 96-well microtiter plates. Inoculates were allowed a preincubation period of 24 h at 37° C. for stabilization. Dilutions at twice the intended test concentration were added at time zero in 100-μL aliquots to the microtiter plate wells. Usually, test compounds were evaluated at five 10-fold dilutions. In routine testing, the highest well concentration is 10E-4 M, but for the standard agents the highest well concentration used depended on the agent. Incubations lasted for 48 h in 5% CO2 atmosphere and 100% humidity. The cells were assayed by using the sulforhodamine B assay (Rubinstein, et. al., Skehan, et. al.). A plate reader was used to read the optical densities, and a microcomputer processed the optical densities into the special concentration parameters.

BT-549 = settings: Breast Cancer, 48 h
Description: as §1, §2

CAKI-1 = settings: Renal Cancer, 48 h
Description: as §1, §2

COLO 205 = settings: Colon Cancer, 48 h
Description: as §1, §2

EKVX = settings: Non-Small Cell Lung Cancer, 48 h
Description: as §1, §2

HCT-116 = settings: Colon Cancer, 48 h
Description: as §1, §2

HL-60 (TB) = settings: Leukemia, 48 h
Description: as §1, §2

HOP-62 = settings: Non-Small Cell Lung Cancer, 48 h
Description: as §1, §2

HS 578T = settings: Breast Cancer, 48 h
Description: as §1, §2

HT29 = settings: 48 h
Description: as §1, §2

IGROV1 = settings: 48 h
Description: as §1, §2

K-562 = settings: 48 h
Description: as §1, §2

KM12 = settings: Colon Cancer, 48 h
Description: as §1, §2

LOX IMVI = settings: Melanoma, 48 h
Description: as §1, §2

MALME-3M = settings: Melanoma, 48 h
Description: as §1, §2

MCF7/ADR-RES = settings: Breast Cancer, 48 h
Description: as §1, §2

MCF7 = settings: Breast Cancer, 48 h
Description: as §1, §2

MDA-MB-231/ATCC = settings: Breast Cancer, 48 h
Description: as §1, §2

MDA-MB-435 = settings: Breast Cancer, 48 h
Description: as §1, §2

MDA-N = settings: Breast Cancer, 48 h
Description: as §1, §2

MOLT-4 = settings: Leukemia, 48 h
Description: as §1, §2

NCI-H226 = settings: Non-Small Cell Lung Cancer, 48 h
Description: as §1, §2

NCI-H322M = settings: Non-Small Cell Lung Cancer, 48 h
Description: as §1, §2

NCI-H460 = settings: Non-Small Cell Lung Cancer, 48 h
Description: as §1, §2

OVCAR-3 = settings: Ovarian Cancer, 48 h
Description: as §1, §2

OVCAR-4 = settings: Ovarian Cancer, 48 h
Description: as §1, §2

OVCAR-8 = settings: Ovarian Cancer, 48 h
Description: as §1, §2

PC-3 = settings: Prostate Cancer, 48 h
Description: as §1, §2

RXF 393 = settings: Renal Cancer, 48 h
Description: as §1, §2

SF-268 = settings: CNS Cancer, 48 h
Description: as §1, §2

SF-539 = settings: CNS Cancer, 48 h
Description: as §1, §2

SK-MEL-2 = settings: Melanoma, 48 h
Description: as §1, §2

SK-MEL-5 = settings: Melanoma, 48 h
Description: as §1, §2

SK-OV-3 = settings: Ovarian Cancer, 48 h
Description: as §1, §2

SNB-19 = settings: CNS Cancer, 48 h
Description: as §1, §2

SR = settings: Leukemia, 48 h
Description: as §1, §2

SW-620 = settings: Colon Cancer, 48 h
Description: as §1, §2

TK-10 = settings: Renal Cancer, 48 h
Description: as §1, §2

U251 = settings: 48 h
Description: as §1, §2

UACC-257 = settings: Melanoma, 48 h
Description: as §1, §2

UACC-62 = settings: Melanoma, 48 h
Description: as §1, §2

**Q.** Which IC50 (A498) does the source give for `O=S1(=O)CC#CCOCCOCCOCCOCCOCCOCC#CC1` [Compound 2.47] here?
**A.** 16.9 µM

**Q.** And the IC50 (BT-549)?
**A.** 14.1 µM

**Q.** And the IC50 (CAKI-1)?
**A.** 12.2 µM

**Q.** And the IC50 (COLO 205)?
**A.** 7.2 µM

**Q.** And the IC50 (EKVX)?
**A.** 15.1 µM

**Q.** And the IC50 (HCT-116)?
**A.** 8.1 µM

**Q.** And the IC50 (HL-60 (TB))?
**A.** 13.5 µM

**Q.** And the IC50 (HOP-62)?
**A.** 21.7 µM

**Q.** And the IC50 (HS 578T)?
**A.** 40.7 µM

**Q.** What about the IC50 (HT29; Colon Cancer) of the same compound?
**A.** 13.8 µM

**Q.** And the IC50 (IGROV1; Ovarian Cancer)?
**A.** 16.3 µM

**Q.** And the IC50 (K-562; Leukemia)?
**A.** 11.2 µM

**Q.** And the IC50 (KM12)?
**A.** 16.2 µM

**Q.** What about the IC50 (LOX IMVI) of the same compound?
**A.** 11.1 µM

**Q.** And the IC50 (MALME-3M)?
**A.** 2.7 µM

**Q.** What about the IC50 (MCF7/ADR-RES) of the same compound?
**A.** 25.7 µM

**Q.** What about the IC50 (MCF7) of the same compound?
**A.** 10.1 µM

**Q.** What about the IC50 (MDA-MB-231/ATCC) of the same compound?
**A.** 20 µM

**Q.** And the IC50 (MDA-MB-435)?
**A.** 13.3 µM

**Q.** What about the IC50 (MDA-N) of the same compound?
**A.** 14.2 µM

**Q.** What about the IC50 (MOLT-4) of the same compound?
**A.** 3.7 µM

**Q.** And the IC50 (NCI-H226)?
**A.** 39.7 µM

**Q.** And the IC50 (NCI-H322M)?
**A.** 17.5 µM

**Q.** What about the IC50 (NCI-H460) of the same compound?
**A.** 19.3 µM

**Q.** And the IC50 (OVCAR-3)?
**A.** 15.8 µM

**Q.** And the IC50 (OVCAR-4)?
**A.** 19.8 µM

**Q.** And the IC50 (OVCAR-8)?
**A.** 14.2 µM

**Q.** What about the IC50 (PC-3) of the same compound?
**A.** 18.6 µM

**Q.** And the IC50 (RXF 393)?
**A.** 15.1 µM

**Q.** And the IC50 (SF-268)?
**A.** 24.2 µM

**Q.** And the IC50 (SF-539)?
**A.** 11.1 µM

**Q.** And the IC50 (SK-MEL-2)?
**A.** 16.1 µM

**Q.** What about the IC50 (SK-MEL-5) of the same compound?
**A.** 16.8 µM

**Q.** And the IC50 (SK-OV-3)?
**A.** 36 µM

**Q.** What about the IC50 (SNB-19) of the same compound?
**A.** 18.2 µM

**Q.** And the IC50 (SR)?
**A.** 8.2 µM

**Q.** And the IC50 (SW-620)?
**A.** 10.4 µM

**Q.** And the IC50 (TK-10)?
**A.** 13.9 µM

**Q.** What about the IC50 (U251; CNS Cancer) of the same compound?
**A.** 16.9 µM

**Q.** What about the IC50 (UACC-257) of the same compound?
**A.** 11.6 µM

**Q.** What about the IC50 (UACC-62) of the same compound?
**A.** 0.28 µM

**Q.** Which results are given for `O=S1(=O)CC#CCOCCOCCOCCOCCOCCOCCOCC#CC1` [Compound 2.48]?
**A.** IC50 (A498): 54.7 µM; IC50 (BT-549): 20 µM; IC50 (CAKI-1): 21.2 µM; IC50 (COLO 205): 14.7 µM; IC50 (EKVX): 20.9 µM; IC50 (HCT-116): 15.3 µM; IC50 (HL-60 (TB)): 20.9 µM; IC50 (HOP-62): 21 µM; IC50 (HS 578T): 52.8 µM; IC50 (HT29; Colon Cancer): 18.7 µM; IC50 (IGROV1; Ovarian Cancer): 44.6 µM; IC50 (K-562; Leukemia): 23.9 µM; IC50 (KM12): 20.7 µM; IC50 (LOX IMVI): 19.9 µM; IC50 (MALME-3M): 14.6 µM; IC50 (MCF7/ADR-RES): > 100 µM; IC50 (MCF7): 22 µM; IC50 (MDA-MB-231/ATCC): 23.5 µM; IC50 (MDA-MB-435): 20.4 µM; IC50 (MDA-N): 18.9 µM; IC50 (MOLT-4): 19.9 µM; IC50 (NCI-H226): 86.9 µM; IC50 (NCI-H322M): 32.3 µM; IC50 (NCI-H460): 38 µM; IC50 (OVCAR-3): 19.7 µM; IC50 (OVCAR-4): 27.3 µM; IC50 (OVCAR-8): 33.3 µM; IC50 (PC-3): 43.4 µM; IC50 (RXF 393): 27 µM; IC50 (SF-268): 30.5 µM; IC50 (SF-539): 26.2 µM; IC50 (SK-MEL-2): 17.3 µM; IC50 (SK-MEL-5): 18.1 µM; IC50 (SK-OV-3): 32.2 µM; IC50 (SNB-19): 27.9 µM; IC50 (SR): 18.9 µM; IC50 (SW-620): 14.3 µM; IC50 (TK-10): 23 µM; IC50 (U251; CNS Cancer): 18.3 µM; IC50 (UACC-257): 21.2 µM; IC50 (UACC-62): 17.1 µM

**Q.** Which results are given for `O=C(OCC1COCCOCCOCCOCCO1)c1ccc(CS(=O)(=O)CC#CCO)cc1` (stereo not drawn) [Compound 3.2]?
**A.** IC50 (A498; Homo sapiens): > 100 µM; IC50 (BT-549; Homo sapiens): > 100 µM; IC50 (CAKI-1; Homo sapiens): > 100 µM; IC50 (COLO 205; Homo sapiens): > 100 µM; IC50 (EKVX; Homo sapiens): > 100 µM; IC50 (HCT-116; Homo sapiens): > 100 µM; IC50 (HL-60 (TB); Homo sapiens): > 100 µM; IC50 (HOP-62; Homo sapiens): > 100 µM; IC50 (HS 578T; Homo sapiens): 80 µM; IC50 (HT29; Homo sapiens, HT-29, Colon Cancer): > 100 µM; IC50 (IGROV1; Homo sapiens, IGROV-1, Ovarian Cancer): > 100 µM; IC50 (K-562; Homo sapiens, K562, Leukemia): 37 µM; IC50 (KM12; Homo sapiens): > 100 µM; IC50 (LOX IMVI; Homo sapiens): 54.3 µM; IC50 (MALME-3M; Homo sapiens): > 100 µM; IC50 (MCF7/ADR-RES; Homo sapiens): > 100 µM; IC50 (MCF7; Homo sapiens): > 100 µM; IC50 (MDA-MB-231/ATCC; Homo sapiens): > 100 µM; IC50 (MDA-MB-435; Homo sapiens): > 100 µM; IC50 (MDA-N; Homo sapiens): 37.4 µM; IC50 (MOLT-4; Homo sapiens): > 100 µM; IC50 (NCI-H226; Homo sapiens): > 100 µM; IC50 (NCI-H322M; Homo sapiens): 34.3 µM; IC50 (NCI-H460; Homo sapiens): > 100 µM; IC50 (OVCAR-3; Homo sapiens): > 100 µM; IC50 (OVCAR-4; Homo sapiens): > 100 µM; IC50 (OVCAR-8; Homo sapiens): > 100 µM; IC50 (PC-3; Homo sapiens): > 100 µM; IC50 (RXF 393; Homo sapiens): > 100 µM; IC50 (SF-268; Homo sapiens): > 100 µM; IC50 (SF-539; Homo sapiens): 46.8 µM; IC50 (SK-MEL-2; Homo sapiens): 98.7 µM; IC50 (SK-MEL-5; Homo sapiens): > 100 µM; IC50 (SK-OV-3; Homo sapiens): > 100 µM; IC50 (SNB-19; Homo sapiens): > 100 µM; IC50 (SR; Homo sapiens): > 100 µM; IC50 (SW-620; Homo sapiens): 67 µM; IC50 (TK-10; Homo sapiens): > 100 µM; IC50 (U251; Homo sapiens, U-251, CNS Cancer): 69 µM; IC50 (UACC-257; Homo sapiens): > 100 µM; IC50 (UACC-62; Homo sapiens): 82.4 µM
